Data as given in patent publication US9078899B2, “Pyrazolyl-based carboxamides II” (Grünenthal GmbH, priority 2013, dated 2015).

Columns and labels:
[1] = test system: Interleukin-2 (IL-2) production/release; experiment: Jurkat IL-2 Production Assay; assay type: cell-based; conditions: Homo sapiens; Jurkat T cells clone E6-1, 15 μg/ml PHA for 22 hours, IL-2 in supernatant
Method: Jurkat IL-2 Production Assay
The effect of compounds of the invention on Interleukin-2 (IL-2) production/release was tested in the Jurkat T cell line (ECACC) clone E6-1.
Jurkat T cells were cultured in DMEM/F12/Glutamax (Gibco) containing 10% FCS (Gibco), and maintained at 37° C., 5% CO2. Cell were split twice a week [5*10^6 (Mon-Thu) and 1*10^7 (Thu-Mon) cells/50 ml medium in T-175 ZK culture flasks, respectively].
Prior to experiment, cells were seeded on 96 well plates (Cellstar 96 Well; Cat No. 655180, Greiner bio-one) at a density of 5*10^5 cells/well in DMEM/F12/Glutamax (Gibco) containing 10% FCS (Gibco), and incubated for 60 min at 37° C., 5% CO2. Subsequently, compounds were added and cells were allowed to incubate for 30 min at 37° C., 5% CO2. Cells were then stimulated with 15 μg/ml Phytohemagglutinin (PHA; Sigma) for 22 hours at 37° C., 5% CO2.
Before sampling of the supernatants, cells were spun down (200*g/5 min/RT). The amount of IL-2 released into the supernatant was quantified with the human IL-2 AlphaLisa kit (Perkin Elmer) according to manufacturer's instructions. Luminescence proximity measurements were carried out in the Synergy H4 reader (BioTek) employing the fluorescence setting of the reader (ex: 680/30 nm; em: 620/40 nm).
Inhibition of IL-Production/Release in/from Jurkat T Cells was Quantified as Follows:
Zero percent inhibition (MAX) was defined as the [IL-2] determined in supernatants derived from cells to which PHA & DMSO-only had been added instead of compound. Hundred percent inhibition (MIN) was defined as the [IL-2] determined in supernatants derived from cells that had been pre-treated with 1 μM CyclosporineA (Sigma) before the addition of 15 μg/ml PHA.
For routine IC50 determinations of compounds, 8 concentrations of a serial dilution (1:3.16) were tested, starting off from 10 μM.

CRAC channel = target: T1, CRAC channel (Homo sapiens, UniProt Q96D31); experiment: HEK Calcium Influx Assay (FLIPR); assay type: cell-based; conditions: 10 μM; endogenous SOC in HEK293 cells, thapsigargin store depletion, Ca2+ signal 9.5-10 min post-administration; read-out: % inhib.[@ 10 μM] FLIPR
T1 construct: host or cells: HEK293
T1 sequence (Q96D31 whole entry): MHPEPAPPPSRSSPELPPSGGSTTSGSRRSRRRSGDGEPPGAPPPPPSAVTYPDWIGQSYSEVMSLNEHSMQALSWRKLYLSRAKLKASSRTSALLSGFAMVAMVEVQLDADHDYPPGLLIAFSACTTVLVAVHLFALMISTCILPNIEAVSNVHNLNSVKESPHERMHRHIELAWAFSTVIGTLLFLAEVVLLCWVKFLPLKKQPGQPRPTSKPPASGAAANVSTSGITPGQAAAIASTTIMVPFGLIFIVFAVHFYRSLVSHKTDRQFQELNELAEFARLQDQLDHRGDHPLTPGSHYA
Method: The effect of compounds of the invention on intracellular [Ca^2+] was tested in the HEK293 cell line (ECACC).
HEK293 cells were cultured in DMEM/F12/Glutamax (Gibco) containing 10% FCS (Gibco), and maintained at 37° C., 5% CO2. Cell were split twice a week [3*10^6 (Mon-Thu) and 1*10^6 (Thu-Mon) cells/50 ml medium in T-175 ZK culture flasks, respectively]. Twenty four hours pre-experiment, cells were seeded on 96 well plates (Poly-D-Lysine 96well Black/Clear Plate, BD Biocoat REF 356640) at a density of 40,000 cells/well in DMEM/F12 (Gibco) containing 10% FCS (Gibco), and maintained at 37° C., 5% CO2.
Prior to store-depletion, cell culture medium was removed and cells were loaded with the a Calcium-sensitive fluorescent dye comprised within the Calcium-4-assay kit (Molecular Devices) in nominally Ca^2+-free HBS buffer (140 mM NaCl, 4 mM KCl, 0.2 mM MgCl2, 11 mM D-glucose, and 10 mM HEPES, pH 7.4) according to manufacturer's instruction for 60 min at 37° C., 5% CO2.
Passive depletion of intracellular Ca^2+-stores was then triggered by employing the SERCA inhibitor thapsigargin (2 μM final) for 10 min in the dark (RT). To prevent immediate Ca^2+-entry via the activated Store-operated channels (SOCs), cells were maintained in Ca^2+-free HBS buffer comprising 100 μM EGTA during store-depletion.
Intracellular changes in [Ca^2+] were subsequently monitored with the FLIPR device (Molecular Devices). In brief, baseline imaging post-store depletion was allowed for 1 min before adjusting the extracellular buffer to 3 mM CaCl2. Increases in intracellular [Ca^2+] due to pre-activated SOC channels were monitored for 15 min until intracellular Ca^2+ levels had declined into a steady-state. Finally, compounds were administered and Ca^2+ signals were recorded for additional 10 min.
Inhibition of endogenous SOC in HEK293 cells was quantified employing the average Ca^2+ signal measured from 9.5-10 min post-administration. Zero percent inhibition (MAX) was defined as the Ca^2+ signal recorded from wells to which DMSO-only had been added instead of compound. Hundred percent inhibition (MIN) was defined as the signal obtained from wells in which cells haven't been treated with TG prior to Ca^2+ addition and to which DMSO-only had been added instead of compound. For routine IC50 determinations of compounds, 8 concentrations of a serial dilution (1:3.16) were tested, starting off from 10 μM. Reliable IC50's could consequently be determined only, if they were at least sub 2.5-3 μM.

IC50 [1] [µM] | inhibition at 10 µM (CRAC channel) [%] | Compound
1 to 5 | > 70 | COc1ccccc1-c1cc(C(=O)Nc2c(F)cccc2F)nn1C [Example 1, N-(2,6-Difluoro-phenyl)-5-(2-methoxyphenyl)-1-methyl-1H-pyrazole-3-carboxylic acid amide]
1 to 5 | > 70 | COc1ccc(OC)c(-c2cc(C(=O)Nc3ccc(F)cc3F)nn2C)c1 [Example 2, N-(2,4-Difluoro-phenyl)-5-(2,5-dimethoxyphenyl)-1-methyl-1H-pyrazole-3-carboxylic acid amide]
1 to 5 | < 50 | CCOc1ccc(OC)cc1-c1cc(C(=O)Nc2ccncc2F)nn1C [Example 3, 5-(2-Ethoxy-5-methoxy-phenyl)-N-(3-fluoro-pyridin-4-yl)-1-methyl-1H-pyrazole-3-carboxylic acid amide]
0.5 to 1 | > 70 | CCOc1ccc(OC)cc1-c1cc(C(=O)Nc2c(F)cccc2F)nn1C [Example 4, N-(2,6-Difluoro-phenyl)-5-(2-ethoxy-5-methoxy-phenyl)-1-methyl-1H-pyrazole-3-carboxylic acid amide]
0.5 to 1 | > 70 | Cn1nc(C(=O)Nc2c(F)cccc2F)cc1-c1ccccc1C(F)(F)F [Example 7, N-(2,6-Difluoro-phenyl)-1-methyl-5-[2-(trifluoromethyl)-phenyl]-1H-pyrazole-3-carboxylic acid amide]
< 0.5 | > 70 | COc1ccc(OC(F)(F)F)c(-c2cc(C(=O)Nc3c(F)cccc3F)nn2C)c1 [Example 8, N-(2,6-Difluoro-phenyl)-5-[5-methoxy-2-(trifluoromethyloxy)-phenyl]-1-methyl-1H-pyrazole-3-carboxylic acid amide]
1 to 5 | > 70 | COc1ccc(OC(F)(F)F)c(-c2cc(C(=O)Nc3ccncc3F)nn2C)c1 [Example 9, N-(3-Fluoro-pyridin-4-yl)-5-[5-methoxy-2-(trifluoromethyloxy)-phenyl]-1-methyl-1H-pyrazole-3-carboxylic acid amide]
0.5 to 1 | > 70 | COc1ccc(F)cc1-c1cc(C(=O)Nc2c(F)cccc2F)nn1C [Example 10, N-(2,6-Difluoro-phenyl)-5-(5-fluoro-2-methoxy-phenyl)-1-methyl-1H-pyrazole-3-carboxylic acid amide]
0.5 to 1 | > 70 | Cn1nc(C(=O)Nc2c(F)cccc2F)cc1-c1ccc(OC(F)(F)F)cc1Cl [Example 12, 5-[2-Chloro-4-(trifluoromethyloxy)-phenyl]-N-(2,6-difluoro-phenyl)-1-methyl-1H-pyrazole-3-carboxylic acid amide]
1 to 5 | 50 to 70 | COc1ccc(OC)c(-c2cc(C(=O)Nc3ccncc3C#N)nn2C)c1 [Example 15, N-(3-Cyano-pyridin-4-yl)-5-(2,5-dimethoxyphenyl)-1-methyl-1H-pyrazole-3-carboxylic acid amide]
1 to 5 | > 70 | COc1ccc(OC)c(-c2cc(C(=O)Nc3cnccc3C)nn2C)c1 [Example 16, 5-(2,5-Dimethoxyphenyl)-1-methyl-N-(4-methyl-pyridin-3-yl)-1H-pyrazole-3-carboxylic acid amide]
1 to 5 | 50 to 70 | COc1ccc(OC)c(-c2cc(C(=O)Nc3cnc(C)cc3C)nn2C)c1 [Example 17, 5-(2,5-Dimethoxyphenyl)-N-(4,6-dimethyl-pyridin-3-yl)-1-methyl-1H-pyrazole-3-carboxylic acid amide]
1 to 5 | < 50 | COc1ccc(OC)c(-c2cc(C(=O)Nc3ncncc3C)nn2C)c1 [Example 18, 5-(2,5-Dimethoxyphenyl)-1-methyl-N-(5-methyl-pyrimidin-4-yl)-1H-pyrazole-3-carboxylic acid amide]
0.5 to 1 | > 70 | COc1ccc(OC)c(-c2cc(C(=O)Nc3ccncc3C)nn2C)c1 [Example 20, 5-(2,5-Dimethoxyphenyl)-1-methyl-N-(3-methyl-pyridin-4-yl)-1H-pyrazole-3-carboxylic acid amide]
< 0.5 | > 70 | COc1ccc(OC)c(-c2cc(C(=O)Nc3c(F)cccc3F)nn2C)c1 [Example 21, N-(2,6-Difluoro-phenyl)-5-(2,5-dimethoxyphenyl)-1-methyl-1H-pyrazole-3-carboxylic acid amide]
0.5 to 1 | > 70 | COc1ccc(OC)c(-c2c(C)c(C(=O)Nc3ccncc3F)nn2C)c1 [Example 25, 5-(2,5-Dimethoxyphenyl)-N-(3-fluoro-pyridin-4-yl)-1,4-dimethyl-1H-pyrazole-3-carboxylic acid amide]
1 to 5 | > 70 | Cc1ccc(Cl)cc1-c1cc(C(=O)Nc2c(F)cccc2F)nn1C [Example 26, 5-(5-Chloro-2-methyl-phenyl)-N-(2,6-difluoro-phenyl)-1-methyl-1H-pyrazole-3-carboxylic acid amide]
1 to 5 | > 70 | COc1ccc(OC)c(-c2cc(C(=O)Nc3ccccc3C)nn2C)c1 [Example 27, 5-(2,5-Dimethoxyphenyl)-1-methyl-N-(o-tolyl)-1H-pyrazole-3-carboxylic acid amide]
0.5 to 1 | > 70 | Cc1ccc(C(F)(F)F)cc1-c1cc(C(=O)Nc2c(F)cccc2F)nn1C [Example 30, N-(2,6-Difluoro-phenyl)-1-methyl-5-[2-methyl-5-(trifluoromethyl)-phenyl]-1H-pyrazole-3-carboxylic acid amide]
< 0.5 | > 70 | COc1cc(F)c(NC(=O)c2cc(-c3cc(OC)ccc3OC)n(C)n2)c(F)c1 [Example 31, N-(2,6-Difluoro-4-methoxy-phenyl)-5-(2,5-dimethoxyphenyl)-1-methyl-1H-pyrazole-3-carboxylic acid amide]
< 0.5 | > 70 | COc1ccc(OC)c(-c2cc(C(=O)Nc3c(C)cccc3F)nn2C)c1 [Example 32, 5-(2,5-Dimethoxyphenyl)-N-(2-fluoro-6-methyl-phenyl)-1-methyl-1H-pyrazole-3-carboxylic acid amide]
< 0.5 | > 70 | COc1ccc(OC)c(-c2cc(C(=O)Nc3c(F)cncc3F)nn2C)c1 [Example 34, N-(3,5-Difluoro-pyridin-4-yl)-5-(2,5-dimethoxyphenyl)-1-methyl-1H-pyrazole-3-carboxylic acid amide]
 | > 70 | Cc1ccncc1-c1cc(C(=O)Nc2c(C)cncc2F)nn1C [Example 65, N-(3-Fluoro-5-methyl-pyridin-4-yl)-1-methyl-5-(4-methyl-pyridin-3-yl)-1H-pyrazole-3-carboxylic acid amide]
